# Measurements from article PMC6273847, “Protein Tyrosine Phosphatase 1B Inhibitors from the Stems of Akebia quinata” (Molecules, 2016).
# Read-outs that look alike come from different tables or passages of the source.
# Experiments:
# [1] = tested on: MDA-MB-231; assay: Cytotoxic activity against MDA-MB-231 breast cancer cells
# [2] = tested on: MCF7/TAMR; assay: Cytotoxic activity against tamoxifen-resistant MCF7 cells
# [3] = tested on: MCF7; assay: Cytotoxic activity against MCF7 breast cancer cells
# [4] = tested on: MCF7, MDA-MB-231 and MCF7/TAMR breast cancer cell lines
# [5] = biological target: T1, PTP1B (human, recombinant) (Homo sapiens, UniProt P18031); assay: PTP1B enzyme assay (p-NPP substrate); assay type: biochemical; settings: for IC50: mean ± SD of three replicates, 4 mM p-NPP, 37 °C, 30 min; for PTP1B inhibition mode (Lineweaver-Burk plot): p-NPP 1, 2, 4, 8 mM, compound 1, 2, 5, 10 μM
# T1 construct: purchased BIOMOL International LP (USA)
# T1 sequence (P18031 1-435): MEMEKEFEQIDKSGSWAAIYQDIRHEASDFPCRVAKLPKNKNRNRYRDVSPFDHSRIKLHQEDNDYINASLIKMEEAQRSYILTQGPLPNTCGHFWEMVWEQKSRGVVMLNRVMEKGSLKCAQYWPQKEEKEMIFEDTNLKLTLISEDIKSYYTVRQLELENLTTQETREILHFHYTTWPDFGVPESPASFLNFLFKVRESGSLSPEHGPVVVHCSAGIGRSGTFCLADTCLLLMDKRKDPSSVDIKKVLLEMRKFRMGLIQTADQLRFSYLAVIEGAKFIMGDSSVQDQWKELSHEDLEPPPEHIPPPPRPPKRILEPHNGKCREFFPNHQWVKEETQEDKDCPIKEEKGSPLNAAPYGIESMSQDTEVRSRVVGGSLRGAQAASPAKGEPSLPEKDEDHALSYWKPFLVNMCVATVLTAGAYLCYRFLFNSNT
# Description: PTP1B (human, recombinant) was purchased from BIOMOL International LP (USA) and the enzyme activity was measured using p-nitrophenyl phosphate (p-NPP) (N1891, Sigma-Aldrich, St. Louis, MO, USA) as a substrate. In general, the assay was performed in 96-well plate containing 4 mM p-NPP and PTP1B (0.05–0.1 μg) in enzyme buffer (50 mM citrate (pH 6.0), 0.1 M NaCl, 1 mM dithiothreitol (DTT), and 1 mM EDTA) with or without test compounds. The assay was also carried out in the absence of PTP1B enzyme to exclude the effect of test compounds on the measurement absorbance. Following incubation at 37 °C for 30 min, the reaction was terminated with 10 M NaOH solution. The amount of produced p-nitrophenol was estimated by measuring the absorbance at 405 nm using an absorbance microplate reader (VersaMax™, Randor, PA, USA). For the enzyme kinetic determination, Lineweaver-Burk was used to determine the inhibition type of PTP1B. On the basis of Lineweaver-Burk double reciprocal plots, the PTP1B inhibition mode was obtained at various concentrations of p-NPP substrate (1, 2, 4, and 8 mM) without or with different test compound concentrations (1, 2, 5, and 10 μM).
# [6] = tested on: MCF-7 cells; assay: Flow cytometric analysis of cell apoptosis (ApopNexin FITC / PI); assay type: cell-based
# Description: An ApopNexin™ FITC kit (Millipore) was used for the flow cytometric analysis. After MCF-7 cells were seeded on 6-well plates and incubated for 24 h, the cells were treated with test compounds and incubated for 12 h. The detached cells were collected and resuspended to wash the cells twice with PBS. The cells were suspended in cold binding buffer (10 mM Hepes/NaOH pH 7.4, 140 mM NaCl, 2.5 mM CaCl2) at a concentration of 10^6 cells/mL. Annexin conjugate ApopNexin™ FITC and propidium iodide (PI) were added to the cell suspension, which was incubated for 15 min in the dark. Then, the double-stained cells were immediately analyzed using a flow cytometer (BD bioscience, San Jose, CA, USA).
# [7] = Homo sapiens, MDA-MB-231, read-out: Cytotoxic Activities (IC50, μM) MDA-MB-231
# [8] = Homo sapiens, MCF7, read-out: Cytotoxic Activities (IC50, μM) MCF7/TAMR
# [9] = Homo sapiens, MCF7, read-out: Cytotoxic Activities (IC50, μM) MCF7
IC50 [5] [µM],Compound,"IC50 ([1]; read-out: Cytotoxic Activities (IC50, μM) MDA-MB-231, MDA-MB-231, mean ± SD of three replicates) [µM]","IC50 ([2]; read-out: Cytotoxic Activities (IC50, μM) MCF7/TAMR, MCF7/TAMR, mean ± SD of three replicates) [µM]","IC50 ([3]; read-out: Cytotoxic Activities (IC50, μM) MCF7, MCF7, mean ± SD of three replicates) [µM]","IC50 [1, 7] [µM]","cytotoxic activities against breast cancer lines, IC50 values ranging over the cell lines [4]","IC50 [2, 8] [µM]","IC50 [3, 9] [µM]",PTP1B inhibition mode (Lineweaver-Burk plot) [5],"percentage of apoptotic cancer cells (higher right field, Annexin FITC/PI) ([6]; 10 μM, 12 h) [%]","viability at 10 µM ([6]; Homo sapiens, MCF7, 12 h, read-out: percentage of cells in lower left field (viable; low Annexin V and PI staining)) [%]"
–,"4-hydroxy tamoxifen [4-OH tamoxifen, reference compound]",3.1 ± 0.31,13.6 ± 1.25,2.11 ± 0.39,–,–,–,–,–,–,–
4.08 ± 1.09,"CC1(C)CC[C@]2(C(=O)O)CC[C@]3(C)C(=CCC4[C@@]5(C)CCC(O[C@@H]6OC[C@H](O)[C@H](O)[C@H]6O)C(C)(C)C5CC[C@]43C)C2C1 (stereo partly drawn) [Compound 6, 3-O-α-L-arabinopyranosyl olean-12-en-28-oic acid]",–,–,–,0.84 ± 0.17,–,1.39 ± 0.18,1.11 ± 0.04,noncompetitive,89.47,0.75
21.8 ± 4.74,CC1(C)CC[C@]2(C(=O)O)CC[C@]3(C)C(=CCC4[C@@]5(C)CCC(O[C@@H]6OC[C@H](O[C@@H]7O[C@H](CO)[C@@H](O)[C@H](O)[C@H]7O)[C@H](O)[C@H]6O)C(C)(C)C5CC[C@]43C)C2C1 (stereo partly drawn) [Compound 8],–,–,–,1.55 ± 0.21,–,1.78 ± 0.13,1.29 ± 0.09,–,–,–
7.78 ± 1.43,"CC1(C)CC[C@]2(C(=O)O)CC[C@]3(C)C(=CCC4[C@@]5(C)C[C@@H](O)[C@@H](O)[C@](C)(CO)C5CC[C@]43C)C2C1 (stereo partly drawn) [Compound 11, 2α,3α,23-trihydroxyoleane-12-en-28-oic acid]",–,–,–,–,–,–,> 40,–,–,–
–,"CC/C(=C(\c1ccccc1)c1ccc(OCCN(C)C)cc1)c1ccccc1 [Tamoxifen, tamoxifen, reference compound]",–,–,–,10.1 ± 1.51,–,25.4 ± 1.79,8.01 ± 1.81,–,–,–

Compound,IC50 [5] [µM],"IC50 ([1]; read-out: Cytotoxic Activities (IC50, μM) MDA-MB-231, MDA-MB-231, mean ± SD of three replicates) [µM]","IC50 ([2]; read-out: Cytotoxic Activities (IC50, μM) MCF7/TAMR, MCF7/TAMR, mean ± SD of three replicates) [µM]","IC50 ([3]; read-out: Cytotoxic Activities (IC50, μM) MCF7, MCF7, mean ± SD of three replicates) [µM]","IC50 [1, 7] [µM]","cytotoxic activities against breast cancer lines, IC50 values ranging over the cell lines [4]","IC50 [2, 8] [µM]","IC50 [3, 9] [µM]",PTP1B inhibition mode (Lineweaver-Burk plot) [5],"percentage of apoptotic cancer cells (higher right field, Annexin FITC/PI) ([6]; 10 μM, 12 h) [%]","viability at 10 µM ([6]; Homo sapiens, MCF7, 12 h, read-out: percentage of cells in lower left field (viable; low Annexin V and PI staining)) [%]"
"CC(CO)c1cc2c(c(O)c1O)[C@@]1(C)CCCC(C)(C)C1CC2=O (stereo partly drawn) [Compound 2, cyrtophyllones B]",6.77 ± 1.28,–,–,–,4.04 ± 0.8,0.84 ± 0.17 to 13.42 ± 1.26,13.4 ± 1.26,7.91 ± 0.39,–,–,–
"CC1=C(C)C2=CC(=O)c3c(O)c4c(c(O)c3[C@@]2(C)CC1)O[C@@H](C)C4 [Compound 3, uncinatone]",5.41 ± 0.68,–,–,–,5.14 ± 1.55,0.84 ± 0.17 to 13.42 ± 1.26,7.73 ± 1.02,6.02 ± 2.32,noncompetitive,–,–
